How the values were obtained:
[1] = system: NIH-3T3 cells stably expressing RIPK3-1xFv; assay: AP1-induced RIPK3 dimerization cell death, IncuCyte imaging; type: cell-based, murine; settings: AP1 alone, absence of TNF; depended on AP1 concentration
Excerpt: Fv domains rapidly dimerize in response to AP1 treatment that facilitated an investigation of the protein-protein interactions involved in RIPK3 activation and necroptosis (27a). For example, an Fv domain was appended to a C-terminus of RIPK3, that is adjacent to the RHIM domain, in an effort to mimic in situ RHIM-dependent interactions that define RIPK3 activation. RIPK3-1xFv was expressed in NIH-3T3 cells, a cell line that lacks endogenous RIPK3 expression and is therefore unresponsive to TNF-induced necroptosis. See, FIGS. 13A and 13B. Cell death responses of NIH-3T3 cells were quantified by construct expression over time using the IncuCyte imaging system, which allows precise quantification of cell death with high temporal resolution. For example, representative images were acquired from an IncuCyte Imager (data not shown). These images were NIH-3T3 cells stably expressing RIPK3-1xFV, treated with 10 nM AP1 (see FIG. 1B for a quantified graphical representation of this cell death). One set of images show a field of these cells undergoing RIPK3-dependent cell death; the media contains the cell impermeable DNA binding dye Sytox Green, which marks cells that have lost membrane integrity in green. Another set of images depicts the same image set, following analysis by the IncuCyte software package. This software counts each green (dead) cell in each image; counted cells are surrounded by purple halos. Each trace shown in this manuscript depicts data averaged from at least 3 independently treated wells of cells, each of which is imaged in at least 4 separate fields. Each experiment shown is representative of at least 3 separate replicates. All experiments on stably transduced cells is representative of at least three separate replicates performed on each of at least two distinct, independently-derived stable lines.
In the examples below, the following compounds were used: Recombinant murine TNF (Peprotech 315-01A) was used at 1 ng/ml unless otherwise specified; AP1 (Now commercialized by Clontech as “B/B Homodimerizer,” catalog #635059) was dissolved in ethanol to a concentration of 100 μM, then diluted in culture media to a final concentration of 30 nM unless otherwise indicated. zVAD (SM 13 Biochemicals SMFMK001) was dissolved in DMSO to a concentration of 50 mM, then diluted to 50 μM in culture media; Necrostatin-1(Sigma N9037-10MG) was dissolved in DMSO to a concentration of 30 mM, then diluted to 30 μM in culture media; TNFR-Fc (Fisher 430-RI-050) was used at a final concentration of 200 ng/ml; Shield drug was a kind gift of Dr. Tom Wandless and was used at a final concentration of 1 μM. SiGenome SMARTpool siRNAs were purchased from Dharmacon/Fisher. Pools targeting murine MLKL(M-061420-01), murine RIPK1 (M-040150-01), and murine caspase-8 (M-043044-01), as well as a non-targeting “scramble” pool(D-001206-14), were used. Two microliters of a 50 μM stock of these siRNAs were delivered to cells in 6-well format using Lipofectamine siRNA-Max reagent (Life Technologies 13778150) according to the manufacturer's instructions. Forty-eight hours later, these cells were re-plated into 24-well format for cell death assays, or harvested for western blot analysis of knockdowns.
These constructs were transduced into NIH-3T3 cells using standard protocols for helper-dependent retroviral transduction. Transduced cells were selected for 5 days in 1 μg/ml puromycin, then grown to confluence and sorted twice for homogenous GFP expression. […]

[2] = molecular target: wild type FKBP (Homo sapiens, UniProt P62942); settings: relative to Phe36Val FKBP; cited from earlier work
Sequence of wild type FKBP (P62942 whole entry): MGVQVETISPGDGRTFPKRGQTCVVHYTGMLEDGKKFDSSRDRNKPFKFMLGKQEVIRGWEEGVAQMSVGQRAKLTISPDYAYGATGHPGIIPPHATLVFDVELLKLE

[3] = system: mice; settings: delivered intravenously; cited from earlier work
[4] = system: cells; settings: cited from earlier work
[5] = compared with AP1510; cited from earlier work
[6] = molecular target: FKBPs with a single amino acid substitution, Phe36Val (Fv) (Homo sapiens, UniProt P62942, F37V); settings: FKBP Phe36Val (Fv); cited from earlier work
Sequence of FKBPs with a single amino acid substitution, Phe36Val (Fv) (P62942 whole entry F37V): as the sequence (P62942 whole entry) above, with F37V counted along it

[7] = system: splenocyte proliferation; settings: relative to rapamycin; cited from earlier work
[8] = system: mice; settings: mouse, in vivo; cited from earlier work
[9] = serial dilution in (aqueous) culture medium; cited from earlier work
[10] = system: NIH-3T3 cells stably expressing RIPK3-1xFv; assay: TNF-induced necroptosis, IncuCyte imaging; type: cell-based, murine; settings: TNF plus caspase inhibitor zVAD
Experimental: Expression of RIPK3-1xFv sensitized these cells to necroptosis induced by the combination of TNF and a caspase inhibitor (zVAD) in a manner analogous to that observed in Jax cells, a murine fibroblast line that expresses endogenous RIPK3. See, FIG. 13C. […]
Resulting images were analyzed using the software package supplied with the IncuCyte imager, which allows precise analysis of the number of Sytox Green or Yoyo-3 positive cells present in each image. For each experiment, a minimum of three separate wells were treated with each experimental condition, and a minimum of 4 image fields were assessed per well. Percent cell death was calculated by treating a minimum of three distinct wells in each experiment with 100 nM of the cell permeable fluorescent dye Syto Green (S7559), which allows quantification of the total number of cells present in each field. […]

[11] = system: RIPK3 complexes; assay: DSS crosslinking of necrosome complexes resolved by western blotting; type: cell-based, murine; settings: DSS crosslinking, western blot
Experimental: A confluent monolayer of the indicated cells was incubated with the appropriate treatment for 30 minutes at 37 degrees. Cells were lysed in a modified, Tris-free NP40 buffer (30 mM HEPES pH 7.4, 150 mM NaCl, and 1% NP40) without protease inhibitors. Protein lysate was quantified according to standard BCA assay (Pierce) and fifty micrograms of each sample was treated with 0.1 mM DSS crosslinking agent (Thermo Scientific, #21658) for 30 minutes at room temperature; the reaction was quenched by the addition of Tris-HCl pH 7.2 to a final concentration of 50 mM for 15 minutes. Crosslinked samples were analyzed by Western blot as described above, using the anti-2A primary antibody for detection.

[12] = system: RIPK3 necrosome complex (RIPK1, caspase-8); assay: Anti-FLAG immunoprecipitation of necrosome complexes; type: cell-based, murine; settings: AP1 30 minutes
Experimental: Immunoprecipitation of necrosome complexes were carried out using rabbit anti-FLAG antibodies, and TruBlot IP reagents (Rockland Immunochemicals) to eliminate non-specific signals from immunoglobulin heavy and light chains. Briefly, cell lines were treated as indicated and lysed in NP40 buffer (30 mM Tris, 150 mM NaCl, and 1% NP40) supplemented with protease inhibitors. Twenty micrograms of each sample were reserved for “input,” while 500 μg of total protein from each sample were immunoprecipitated with 0.5 μg antibody conjugated to 30 μL TruBlot anti-Rabbit IgG beads Immunocomplexes were washed 4 times in NP40 buffer, eluted by boiling, then run on western blot. Western blots were analyzed using standard primary antibodies, but TruBlot anti-Rabbit and anti-Mouse HRP-conjugated 14 secondary antibodies were used. A standard anti-Rat-HRP secondary was used to detect caspase-8.

[13] = system: NIH-3T3 cells expressing RIPK3-2xFv; assay: AP1-induced RIPK3 oligomerization cell death, IncuCyte imaging; type: cell-based, murine; settings: compared with RIPK3-1xFv
Excerpt: Consequently, two Fv domains were attached to the C-terminus of RIPK3, creating a RIPK3-2xFv construct, with the goal of promoting AP1-induced crosslinking and oligomerization independent of the RHIM domain. See, FIG. 12A. […] Compare, FIGS. 16A and 15A, respectively. […] Cells expressing this RHIM-deficient RIPK3^ΔC-2xFv construct were nonresponsive to TNF+zVAD, previously reported to be dependent on RIPK1 RHIM/RIPK3 RHIM interactions. See, FIG. 13G. […] See, FIG. 16C and FIG. 16D, respectively. […] See, FIG. 16E. […] See, FIG. 16F.
Cell death assays were carried out using a 2-color IncuCyte Zoom in-incubator imaging system (Essen Biosciences.) Briefly, this system allows fully automated imaging of cells at set intervals in phase contrast as well as both red and green fluorescent channels. Cell death assays were carried out by treating cells with death-inducing compounds in 24 well tissue culture vessels (100,000 cells/well), in the presence of 100 nM of the cell-impermeable DNA binding fluorescent dyes Sytox Green (Life Technologies 57020) or Yoyo-3 (Y3606), which are excluded from healthy cells but rapidly enter dying cells upon membrane permeabilization, in a manner analogous to propidium iodide.
Resulting images were analyzed using the software package supplied with the IncuCyte imager, which allows precise analysis of the number of Sytox Green or Yoyo-3 positive cells present in each image. For each experiment, a minimum of three separate wells were treated with each experimental condition, and a minimum of 4 image fields were assessed per well. Percent cell death was calculated by treating a minimum of three distinct wells in each experiment with 100 nM of the cell permeable fluorescent dye Syto Green (S7559), which allows quantification of the total number of cells present in each field. Dead cell events acquired via Sytox Green or Yoyo-3 staining were divided by this total cell number to yield percent cell death at each timepoint. Error bars represent standard deviation from the mean of a minimum of three independent wells. Each result depicted is representative of at least 4 distinct experiments, each of which contained at least 3 technical replicates.

CC[C@H](C(=O)N1CCCC[C@H]1C(=O)O[C@H](CCc1ccc(OC)c(OC)c1)c1cccc(OCC(=O)NCC(CNC(=O)COc2cccc([C@@H](CCc3ccc(OC)c(OC)c3)OC(=O)[C@@H]3CCCCN3C(=O)[C@@H](CC)c3cc(OC)c(OC)c(OC)c3)c2)CN(C)C)c1)c1cc(OC)c(OC)c(OC)c1 [AP1]
RIPK3 activation and necroptosis upon AP1 addition [1]: limited RIPK3 activation and necroptosis

CC[C@H](C(=O)N1CCCC[C@H]1C(=O)O[C@H](CCc1ccc(OC)c(OC)c1)c1cccc(OCC(=O)NCC(CNC(=O)COc2cccc([C@@H](CCc3ccc(OC)c(OC)c3)OC(=O)[C@@H]3CCCCN3C(=O)[C@@H](CC)c3cc(OC)c(OC)c(OC)c3)c2)CN(C)C)c1)c1cc(OC)c(OC)c(OC)c1 [AP20187]
lower affinity to the wild type protein [2]: 1000 fold | doses with maximal effects [3]: 0.5 to 10 mg/kg | toxicity to cells [4]: non-toxic | pharmacokinetic properties [5]: better pharmacokinetic properties than AP1510 | affinity [6]: subnanomolar

AP21967
less immunosuppressive than rapamycin [7]: greater than 1000 fold | non-toxic dose in mice [8]: up to 30 mg/kg | non-toxic concentration to cells [4]: up to 1 μM | highest concentration ensuring complete solubility [9]: ≤ 5 µM

RIPK3-1xFv: murine RIPK3 fused to a single copy of mutated FKBP (F36V), Fv domain, at the C-terminus
sensitization to necroptosis induced by TNF and zVAD by construct expression [10]: sensitized | RIPK3 complexes formed by construct after dimerizer (AP1) treatment [11]: present in a combination of dimers and larger oligomeric complexes

RIPK3-2xFv: RIPK3 with two Fv domains attached to the C-terminus
necrosome formation / interaction with RIPK1 and caspase-8 by construct [12]: interaction with RIPK1 and caspase-8, regardless of the presence of zVAD or Nec1 | RIPK3 complexes formed by construct after dimerizer (AP1) treatment [11]: large molecular weight RIPK3 complexes were observed | necroptotic response to AP1 [13]: faster and more robust necroptotic response

Reference: US20160160189A1, “Truncated Constructs of RIPK3 and Related Uses” (ST. JUDE CHILDREN'S RESEARCH HOSPITAL, priority 2013, published 2016)
